Consider seven compounds from patent US7718846B2, “Animal models of long QT syndrome and uses thereof” (priority 2005, dated 2010).

One data set concerns IKs. Conditions: experimental models in dogs; cited from earlier work.
For the next data set, the system named is LQT2. Conditions: cited from earlier work.
The test system of the next data set is WT rabbits. The settings on record: Carlsson rabbit model; cited from earlier work.
The subject of data set [1] is rabbit left ventricular wedge preparation. The settings on record: 100 μM.
Procedure: Shown are floating microelectrode recordings from an M cell in the subendocardial region of the wedge preparation and an ECG recorded across the bath.
Rabbits weighing 2.5 3.5 kg may be anticoagulated with heparin and anesthetized with pentobarbital (30-35 mg/kg, i.v.). Transmural wedges with dimensions of approximately 2×1.5×0.9 cm to 3×2×1.5 cm may be dissected from the left ventricle. The tissue may be cannulated via a small (diameter ˜100 μm) native branch of the left descending coronary artery and perfused with cardioplegic solution. Unperfused tissue may be carefully removed using a razor blade. […] A transmural ECG may be recorded using electrodes consisting of AgCl half cells attached to Tyrode's-filled tapered polyethylene electrodes which will be placed in the Tyrode's solution bathing the preparation, 1.0 to 1.5 cm from the epicardial and endocardial surfaces of the preparation, along the same vector as the transmembrane recordings. […] Transmembrane action potentials may be simultaneously recorded from epicardial, M, and endocardial sites using three to four separate intracellular floating microelectrodes (DC resistance: 10 to 20 MΩ) filled with 2.7 M KCl and connected to a high-input impedance amplifier. […]
A further data set concerns IKr. The settings on record: E4031 0.5 μM; cited from earlier work.
The subject of the next data set is α1-adrenoreceptor. The settings on record: infusion, patient with LQTS; cited from earlier work.
The next data set has as its system α1-adrenoreceptors. Conditions: cited from earlier work.

Each structure is given as a SMILES string. Where only a bound is given, the exact number is not on record here.

In the case of `CCS(=O)(=O)N(C)[C@H]1c2cc(C#N)ccc2OC(C)(C)[C@@H]1O` (racemic) [chromanol 293B], the “TdP, spontaneous or in response to program stimulation” value in the data set with IKs was “never produced TdP”.
In the case of `CC(C)NCC(O)c1ccc(O)c(O)c1` (centres unmarked) [isoproterenol], the “duration of transient increase in TDR” value with LQT2 is “less than 2 minutes”.
Take `COc1cc2nc(N3CCN(C(=O)c4ccco4)CC3)nc(N)c2cc1OC` [prazosin]: the “suppression of arrhythmias by pretreatment” value with WT rabbits is “as effective as pretreatment with propranolol in suppressing the arrhythmias”.
On to `CC(C)NC[C@@H](O)c1ccc(NS(C)(=O)=O)cc1` [d-sotalol], for which, in data set [1], the “Action potential duration at 90% repolarization (APD90)” value turned out to be 427 ms and the QT interval was 467 ms.
As to `CC(C)NCC(O)COc1cccc2ccccc12` (centres unmarked) [propranolol], in the data set with WT rabbits, the “suppression of arrhythmias by pretreatment” value is listed as “suppressing the arrhythmias”.
Take `Cc1cccc(CCN2CCC(C(=O)c3ccc(NS(C)(=O)=O)cc3)CC2)n1` [E4031, Benzenesulfonamide E-4031]: in the data set on IKr, the APD is above 1 s and the “apex-to-base dispersion of repolarization” value is given as “marked enhancement of the apex-to-base dispersion of repolarization with reversal of repolarization”.
As for `COc1ccc(OC)c(C(O)C(C)N)c1` (centres unmarked) [methoxamine], the QTc result in the data set on α1-adrenoreceptor is given as “prolong the QTc”. Besides, the “APD90 in tissues from the M region” value in the data set with α1-adrenoreceptors (canine wedge preparations) is “abbreviation of APD90”. Besides, the “APD90 in Purkinje fibers” value in the data set with α1-adrenoreceptors (canine) was “dose- and rate-dependent prolongation of APD90”.
